# Results from ChEMBL document CHEMBL1129323, “Comparative molecular moment analysis (CoMMA): 3D-QSAR without molecular superposition” (J Med Chem, 1996).
# Legend:
# [1] = Hammett constant was evaluated; format: ADME
# [2] = molecular target: T1, Corticosteroid-binding globulin (Homo sapiens) (UniProt P08185)
# T1 sequence (whole entry): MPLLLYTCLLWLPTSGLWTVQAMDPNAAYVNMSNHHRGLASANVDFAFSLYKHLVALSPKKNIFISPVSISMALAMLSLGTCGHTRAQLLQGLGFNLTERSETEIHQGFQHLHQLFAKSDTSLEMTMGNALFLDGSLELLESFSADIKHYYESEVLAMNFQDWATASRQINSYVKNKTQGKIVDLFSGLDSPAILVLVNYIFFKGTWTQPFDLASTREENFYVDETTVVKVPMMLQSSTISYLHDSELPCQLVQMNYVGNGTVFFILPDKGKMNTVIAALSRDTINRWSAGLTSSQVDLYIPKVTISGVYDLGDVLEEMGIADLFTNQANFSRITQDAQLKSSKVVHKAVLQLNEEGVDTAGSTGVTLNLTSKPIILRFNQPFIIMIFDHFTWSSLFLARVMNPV
# Description: Binding affinity for corticosteroid binding globulin is expressed as log(1/k)
# [3] = molecular target: T2, Sex hormone-binding globulin (Homo sapiens) (UniProt P04278)
# T2 sequence (whole entry): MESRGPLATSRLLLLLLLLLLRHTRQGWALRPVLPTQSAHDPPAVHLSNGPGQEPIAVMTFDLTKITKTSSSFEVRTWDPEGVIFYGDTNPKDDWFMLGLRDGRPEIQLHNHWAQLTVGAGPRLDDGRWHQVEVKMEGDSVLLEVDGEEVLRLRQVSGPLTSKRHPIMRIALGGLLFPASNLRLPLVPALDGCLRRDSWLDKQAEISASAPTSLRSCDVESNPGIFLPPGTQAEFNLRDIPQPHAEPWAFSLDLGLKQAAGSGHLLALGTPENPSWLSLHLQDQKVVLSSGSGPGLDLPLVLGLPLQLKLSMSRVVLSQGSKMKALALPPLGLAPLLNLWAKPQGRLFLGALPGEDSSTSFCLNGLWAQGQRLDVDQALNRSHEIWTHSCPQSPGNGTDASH
# Description: Binding affinity towards testosterone binding globulin is expressed as log(1/k).
SMILES,Hammett constant [1],Log 1/K [2],Log 1/K [3]
O=C(O)c1ccc(Br)cc1,0.23,–,–
O=C(O)c1ccccc1 [BENZOIC ACID],0,–,–
O=C(O)c1cccc(S(=O)(=O)F)c1,0.8,–,–
Nc1ccc(C(=O)O)cc1 [AMINOBENZOIC ACID],-0.66,–,–
C[C@]12C=CC(=O)C=C1CC[C@@H]1[C@@H]2[C@@H](O)C[C@@]2(C)[C@H]1CC[C@]2(O)C(=O)CO,–,7.51,–
N#Cc1ccc(C(=O)O)cc1,0.66,–,–
O=C(O)c1cccc(C(F)(F)F)c1,0.43,–,–
O=C(O)c1ccc(C(F)(F)F)cc1,0.54,–,–
C[C@]12C[C@@H](O)[C@H]3[C@@H](CCC4=CC(=O)CC[C@@]43C)[C@@H]1CC[C@@H]2C(=O)CO,–,7.2,–
O=C(O)c1cccc(I)c1,0.35,–,–
O=C(O)c1ccc(CI)cc1,0.11,–,–
O=C(O)c1ccc(SC(F)(F)F)cc1,0.5,–,–
O=C(O)c1ccc(S(=O)(=O)F)cc1,0.91,–,–
O=C(O)c1cccc(SC(F)(F)F)c1,0.4,–,–
CC(=O)[C@@]1(C)CCC2C3CCC4=CC(=O)CC[C@]4(C)C3CC[C@@]21C (some centres not stated),–,7.12,–
O=C(O)c1cccc(CI)c1,0.1,–,–
C[C@]12CCC(=O)C=C1CC[C@@H]1[C@@H]2[C@@H](O)C[C@@]2(C)[C@H]1CC[C@]2(O)C(=O)CO,–,7.88,6.2
CSc1ccc(C(=O)O)cc1,0,–,–
O=C(O)c1ccc(S)cc1,0.15,–,–
O=C(O)c1ccc(CBr)cc1,0.14,–,–
C[C@]12CCC(=O)C=C1CC[C@@H]1[C@@H]2C(=O)C[C@@]2(C)[C@H]1CC[C@]2(O)C(=O)CO,–,6.89,6.43
C[C@]12CC[C@H]3[C@@H](CCC4=CC(=O)CC[C@@]43C)[C@@H]1CC[C@@H]2O,–,6.72,9.2
N#Cc1cccc(C(=O)O)c1,0.56,–,–
O=C(O)c1cccc(S)c1,0.25,–,–

SMILES,Hammett constant [1],Log 1/K [2],Log 1/K [3]
O=C(O)c1cccc(Br)c1,0.39,–,–
O=C(O)c1ccc(O)cc1 [PARABEN],-0.37,–,–
Cc1ccc(C(=O)O)cc1 [4-METHYLBENZOIC ACID],-0.17,–,–
O=C(O)c1cccc(CBr)c1,0.12,–,–
Cc1cccc(C(=O)O)c1,-0.07,–,–
O=C(O)c1ccc(F)cc1,0.06,–,–
C[C@]12CCC(=O)C=C1CC[C@@H]1[C@@H]2CC[C@@]2(C)[C@H]1CC[C@]2(O)C(=O)CO,–,7.88,7.2
CS(=O)(=O)c1cccc(C(=O)O)c1,0.6,–,–
CC(=O)[C@H]1CC[C@H]2[C@@H]3CC=C4C[C@@H](O)CC[C@]4(C)[C@H]3CC[C@]12C,–,5.25,7.15
O=C(O)c1cccc(Cl)c1,0.37,–,–
CCc1ccc(C(=O)O)cc1,-0.15,–,–
O=C(O)c1ccc(C(F)(F)C(F)(F)F)cc1,0.52,–,–
CCc1cccc(C(=O)O)c1,-0.07,–,–
O=C(O)c1ccc(OC(F)(F)F)cc1,0.35,–,–
O=C(O)c1ccc(CCl)cc1,0.12,–,–
O=C(O)c1ccc(S(=O)(=O)C(F)(F)F)cc1,0.93,–,–
CC(=O)[C@H]1CC[C@H]2[C@@H]3CCC4=CC(=O)CC[C@@H]4[C@H]3CC[C@]12C,–,6.82,–
O=C(O)c1cccc(F)c1,0.34,–,–
CC(=O)[C@H]1CC[C@H]2[C@@H]3CCC4=CC(=O)CC[C@]4(C)[C@H]3C(=O)C[C@]12C,–,6.78,–
CC(=O)[C@@]1(O)[C@H](O)C[C@H]2[C@@H]3CCC4=CC(=O)CC[C@]4(C)[C@H]3CC[C@@]21C,–,6.25,–
C[C@]12CC[C@H]3[C@@H](CCC4=CC(=O)CC[C@@H]43)[C@@H]1CC[C@@H]2O,–,6.14,–
C[C@]12CCC(=O)C=C1CC[C@@H]1[C@@H]2[C@@H](O)C[C@]2(C=O)[C@@H](C(=O)CO)CC[C@@H]12,–,6.28,5.32
O=C(O)c1cccc(O)c1 [3-HYDROXYBENZOIC ACID],0.12,–,–
C[C@]12C[C@H](O)[C@H]3[C@@H](CCC4=CC(=O)CC[C@@]43C)[C@@H]1CC[C@@H]2C(=O)CO,–,7.88,6.34

SMILES,Hammett constant [1],Log 1/K [2],Log 1/K [3]
CSc1cccc(C(=O)O)c1,0.15,–,–
O=C(O)c1ccc(I)cc1,0.18,–,–
CC(=O)[C@@]1(O)CC[C@H]2[C@@H]3CC=C4C[C@@H](O)CC[C@]4(C)[C@H]3CC[C@@]21C,–,5,6.36
C[C@]12CC[C@@H]3c4ccc(O)cc4CC[C@H]3[C@@H]1C[C@@H](O)[C@@H]2O,–,5,6.63
C[C@]12CC[C@H](O)CC1=CC[C@@H]1[C@@H]2CC[C@]2(C)C(=O)CC[C@@H]12,–,5,7.82
CC(=O)[C@H]1CC[C@H]2[C@@H]3CCC4=CC(=O)CC[C@]4(C)[C@H]3CC[C@]12C,–,7.38,6.94
O=C(O)c1cccc(CCl)c1,0.11,–,–
CS(=O)(=O)c1ccc(C(=O)O)cc1,0.72,–,–
C[C@]12CC[C@H]3[C@@H](CCC4=CC(=O)CC[C@@]43C)[C@@H]1CC[C@@H]2C(=O)CO,–,7.65,7.38
C[C@@H]1C[C@@]2(C)C(=CC1=O)CC[C@H]1[C@@H]3CC[C@](O)(C(=O)CO)[C@@]3(C)C[C@H](O)[C@@]12F,–,5.8,–
O=C(O)c1cccc(OC(F)(F)F)c1,0.38,–,–
O=C(O)c1cccc(S(=O)(=O)C(F)(F)F)c1,0.79,–,–
C[C@]12CC[C@H](O)C[C@@H]1CC[C@@H]1[C@@H]2CC[C@]2(C)[C@@H](O)CC[C@@H]12,–,5,9.11
O=C(O)c1cccc(C(F)(F)C(F)(F)F)c1,0.47,–,–
O=C(O)c1cccc([N+](=O)[O-])c1,0.71,–,–
CC(=O)[C@@]1(O)CC[C@H]2[C@@H]3CCC4=CC(=O)CC[C@]4(C)[C@H]3CC[C@@]21C,–,7.74,7
C[C@]12CCC(=O)C=C1CC[C@@H]1[C@@H]2CC[C@]2(C)C(=O)CC[C@@H]12,–,5.76,7.46
O=C(O)c1ccc([N+](=O)[O-])cc1 [4-NITROBENZOIC ACID],0.78,–,–
Nc1cccc(C(=O)O)c1 [3-AMINOBENZOIC ACID],-0.16,–,–
CC(C)(C)c1cccc(C(=O)O)c1,-0.1,–,–
COc1ccc(C(=O)O)cc1 [p-ANISIC ACID],-0.27,–,–
CC(C)(C)c1ccc(C(=O)O)cc1,-0.2,–,–
COc1cccc(C(=O)O)c1,0.12,–,–
CC(=O)OCC(=O)[C@@]1(O)CCC2C3CCC4=CC(=O)CC[C@]4(C)C3C(O)C[C@@]21C (some centres not stated),–,7.55,–
